Experiments:
Assay type in all cases: cell-based, C57BL/6 mice
[1] = tested on: plasmacytoid dendritic cells; test: IL-10 secretion from pDC induced with various toll-like receptor agonists, ELISA (Example 3); settings: pDC stimulated with ODN1826 (1 μg/ml), 24 hours; vs non-treatment
Experimental: Ligands listed in Table 2 were used as the toll-like receptor agonist. […] The separated cells (5×10^5 cells/ml) were inoculated into a 48 well plate. ODN1826 (1 μg/ml) was applied thereto and the cells were cultured for 24 hours. Then, supernatant was separated. The secretion pattern of the immunosuppressive cytokine IL-10 was then checked by ELISA (enzyme linked immunosorbent assay). In this connection, in order to check the effect from the treatment using the toll-like receptor agonist, the case in which the toll-like receptor agonist was not applied thereto during the differentiation of the immature dendritic cells is shown as Comparative Example (non).

immature dendritic cells = test: Differentiation of immature dendritic cells into plasmacytoid dendritic cells with toll-like receptor agonist (Example 1); settings: Pam3 100 to 500 ng/ml on third day of Flt3L differentiation; treatment vs non-treatment
Experimental: Specifically, thigh bone marrow samples were collected from C57BL/6 mice using bone marrow collecting syringes. The collected bone marrow was washed with phosphate buffered saline (PBS), and red blood cells were removed therefrom using ammonium chloride. Separated cells (3×10^6 cells/well) were inoculated in a 6-well plate. Then, 1 ml of RPMI 1640 containing 10% FBS (fetal bovine serum), 2 mM L-glutamine, 100 U/ml penicillin/streptomycin, 50 μM mercaptoethanol, 0.1 mM non-essential amino acid, 1 mM sodium pyruvate and 250 ng/ml FLT3L was added thereto to initiate culture and differentiation of the cells. On the third day after the start of differentiation, Pam3 was applied thereto at a concentration of 100 to 500 ng/ml. On 5 days from the start of differentiation, 1 ml of the RPMI 1640 was further supplemented thereto. The cells were cultured for 8 days. […] Further, in the case (TLRs-pDC) when the immature dendritic cells were treated with the toll-like receptor agonist, the ratio of the number of plasmacytoid dendritic cells obtained after the eighth day to the number of the initial immature dendritic cells was measured. […]

[2] = tested on: plasmacytoid dendritic cells; test: Cytokine secretion from pDC according to treatment time of toll-like receptor agonist, ELISA (Example 4); settings: agonist applied at start of differentiation (0 day treatment) or 3 days thereafter; ODN1826 24 hours; vs no-treatment
Source text: Differentiation into the plasmacytoid dendritic cells was induced by the same method as in Example 1 in order to check the immune tolerance inducing effect of the toll-like receptor agonist according to the treatment time point. Further, the toll-like receptor agonists were applied at the start time of the differentiation (0-day treatment) and were applied on 3 days after the start of differentiation (3 day treatment). After the total 8 days culturing, the plasmacytoid dendritic cells were isolated therefrom at a purity equal to or greater than 85% using a plasmacytoid dendritic cell separation kit (Miltenyi Biotec, Auburn, Calif.) and a magnetic cell sorting system (Vario MACS: Miltenyi Biotec, Auburn, Calif.). The separated cells (5×10^5 cells/ml) were inoculated into a 48 well plate. ODN1826 (1 μg/ml) was applied thereto and the cells were cultured for 24 hours. Then, supernatant was separated. The secretion pattern of the cytokine was then checked by ELISA (enzyme linked immunosorbent assay). In this connection, in order to check the effect from the treatment using the toll-like receptor agonist, the case in which the toll-like receptor agonist was not applied thereto during the differentiation of the immature dendritic cells is shown as Comparative Example (no-treatment, non).

Row | Compound | expression level of IL-10 from pDC differentiated via treatment with the agonist [1] | differentiation efficiency into plasmacytoid dendritic cells (immature dendritic cells) | expression level of IFN-α [2] | expression level of IFN-β [2] | expression level of IL-10 [2] | expression level of IL-12p70 [2] | expression level of TNF-α [2]
1 | CC(C)Cn1cnc2c(N)nc3ccccc3c21 [TLR7 agonist, Imiquimod] | significantly increased |  |  |  |  |  | 
2 | Pam3 [TLR2 agonist] | significantly increased | no difference | inhibited | inhibited | significantly increased | inhibited | inhibited
3 | LPS [TLR4 agonist] | significantly increased |  |  |  |  |  | 

Source: patent US20200246380A1, “Pharmaceutical Composition for Preventing or Treating Autoimmune Disease, and Method for Producing Same” (priority 2017, published 2020)
